Test results taken from US9266834B2, “1, 4-disubstituted 3-cyano-pyridone derivatives and their use as positive allosteric modulators of MGLUR2-receptors” (JANSSEN PHARMACEUTICALS, INC., priority 2006, dated 2016).

Columns and labels:
human mGluR2 receptor = molecular target: T1, human mGluR2 receptor (Homo sapiens, UniProt Q14416); experiment: [35S]GTPγS binding assay (GTPγS-PAM): positive allosteric modulation in presence of glutamate at EC25, membranes from transfected CHO cells; assay type: biochemical; details: in presence of mGluR2 agonist glutamate at predetermined EC25 concentration, averages of duplicate values of 11-concentration response curves, read-out: GTPgS - hR2 PAM pEC50 (converted)
T1 construct: expressed in transfected cells; host or cells: CHO cells (membrane preparation)
T1 sequence (Q14416 19-872): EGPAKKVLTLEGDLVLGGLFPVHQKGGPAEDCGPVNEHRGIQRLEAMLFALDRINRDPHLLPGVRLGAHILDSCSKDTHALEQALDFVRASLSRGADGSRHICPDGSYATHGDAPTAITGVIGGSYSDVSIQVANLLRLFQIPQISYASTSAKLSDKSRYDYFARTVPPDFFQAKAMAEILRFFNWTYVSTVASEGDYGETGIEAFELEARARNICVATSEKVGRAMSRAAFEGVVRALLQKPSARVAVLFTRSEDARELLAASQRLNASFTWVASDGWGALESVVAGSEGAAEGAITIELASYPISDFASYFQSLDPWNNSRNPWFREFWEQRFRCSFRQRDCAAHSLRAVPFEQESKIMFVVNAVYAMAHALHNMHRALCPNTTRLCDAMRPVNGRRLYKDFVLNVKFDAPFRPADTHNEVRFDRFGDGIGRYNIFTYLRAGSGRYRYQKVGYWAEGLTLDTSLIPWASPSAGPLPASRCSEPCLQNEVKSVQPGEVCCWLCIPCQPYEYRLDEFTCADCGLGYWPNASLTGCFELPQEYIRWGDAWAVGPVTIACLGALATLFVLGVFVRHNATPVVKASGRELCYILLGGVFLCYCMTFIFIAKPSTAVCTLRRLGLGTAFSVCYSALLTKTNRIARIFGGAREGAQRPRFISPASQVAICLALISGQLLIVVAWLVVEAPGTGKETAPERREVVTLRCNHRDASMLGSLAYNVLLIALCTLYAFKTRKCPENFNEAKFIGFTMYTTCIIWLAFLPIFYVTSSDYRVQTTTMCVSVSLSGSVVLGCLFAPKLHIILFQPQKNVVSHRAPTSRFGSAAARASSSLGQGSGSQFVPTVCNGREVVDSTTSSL
How it was run: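 Potentiation was read as filter-retained [35S]GTPγS (0.1 nM final, 30 min, 30° C.) after a 30 min, 30° C. preincubation of human mGluR2 CHO membranes (15 μg/well) with EC25 glutamate and 11 modulator concentrations spanning 0.3 nM-50 μM. The buffer was 50 mM HEPES pH 7.4, NaCl, MgCl2, 50 μM GDP and saponin. Cold 10 μM GTP defined nonspecific binding; data were fitted by a four-parameter logistic.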

## CC(C)CCn1ccc(-c2ccc(CN(C)Cc3ccccn3)cc2)c(C#N)c1=O [1-212]
Human mGluR2 receptor
  EC50: 1000 nM
other
  melting point: 294 °C

## C[C@@H]1CN(Cc2ccc(-c3ccn(Cc4ccc(OC(F)(F)F)cc4)c(=O)c3C#N)cc2)C[C@H](C)O1 [1-035]
Human mGluR2 receptor
  EC50: 794 nM
other
  melting point: 136 °C

## CC(C)CCn1ccc(-c2ccccc2F)c(C#N)c1=O [1-087]
Human mGluR2 receptor
  EC50: 3980 nM
other
  melting point: 125 °C

## COc1cccc(Oc2ccc(-c3ccn(CCC(C)C)c(=O)c3C#N)cc2)c1 [1-143]
Human mGluR2 receptor
  EC50: 79.4 nM
other
  melting point: 118 °C

## N#Cc1c(N2CCN(Cc3cc(F)cc(C(F)(F)F)c3)CC2)ccn(CC2CC2)c1=O [2-038]
Human mGluR2 receptor
  EC50: 5010 nM
other
  melting point: 140 °C

## CC(C)CCn1ccc(N2CCCc3ccccc32)c(C#N)c1=O [5-031]
Human mGluR2 receptor
  EC50: 6310 nM
other
  melting point: 134 °C

## CC(C)CCn1ccc(N2CCN(c3nc4ccccc4o3)CC2)c(C#N)c1=O [2-035]
Human mGluR2 receptor
  EC50: 1000 nM
other
  melting point: 288 °C
